Results taken from ChEMBL document CHEMBL4507293 (2021).

Key:
[1] = target: Calcium/calmodulin-dependent protein kinase type II subunit alpha (Homo sapiens) (UniProt Q9UQM7); details: Compound concentration 100.0 nM
[2] = target: Calcium/calmodulin-dependent protein kinase type II subunit gamma (Homo sapiens) (UniProt Q13555); details: Compound concentration 100.0 nM
[3] = target: Peripheral plasma membrane protein CASK (Homo sapiens) (UniProt O14936); details: Compound concentration 100.0 nM
[4] = target: Cyclin-dependent kinase 11A (Homo sapiens) (UniProt Q9UQ88); details: Compound concentration 100.0 nM
[5] = target: Cyclin-dependent kinase-like 1 (Homo sapiens) (UniProt Q00532); details: Compound concentration 100.0 nM
[6] = target: Cyclin-dependent kinase-like 2 (Homo sapiens) (UniProt Q92772); details: Compound concentration 100.0 nM
[7] = target: Casein kinase I isoform alpha-like (Homo sapiens) (UniProt Q8N752); details: Compound concentration 100.0 nM
[8] = target: Casein kinase I isoform epsilon (Homo sapiens) (UniProt P49674); details: Compound concentration 100.0 nM
[9] = system: Epidermal growth factor receptor (Homo sapiens), P00533 [UNDEFINED MUTATION]; details: Compound concentration 100.0 nM
[10] = target: Ephrin type-A receptor 7 (Homo sapiens) (UniProt Q15375); details: Compound concentration 100.0 nM
[11] = target: Receptor tyrosine-protein kinase erbB-2 (Homo sapiens) (UniProt P04626); details: Compound concentration 100.0 nM
[12] = target: Tyrosine-protein kinase Fgr (Homo sapiens) (UniProt P09769); details: Compound concentration 100.0 nM
[13] = system: Receptor-type tyrosine-protein kinase FLT3 (Homo sapiens), P36888 [N841I]; details: Compound concentration 100.0 nM
[14] = target: Rhodopsin kinase GRK1 (Homo sapiens) (UniProt Q15835); details: Compound concentration 100.0 nM
[15] = target: Inhibitor of nuclear factor kappa-B kinase subunit alpha (Homo sapiens) (UniProt O15111); details: Compound concentration 100.0 nM
[16] = target: Tyrosine-protein kinase JAK2 (Homo sapiens) (UniProt O60674); details: Compound concentration 100.0 nM
[17] = system: Leucine-rich repeat serine/threonine-protein kinase 2 (Homo sapiens), Q5S007 [G2019S]; details: Compound concentration 100.0 nM
[18] = target: Leukocyte tyrosine kinase receptor (Homo sapiens) (UniProt P29376); details: Compound concentration 100.0 nM
[19] = target: Mitogen-activated protein kinase kinase kinase kinase 2 (Homo sapiens) (UniProt Q12851); details: Compound concentration 100.0 nM
[20] = target: Mitogen-activated protein kinase kinase kinase kinase 4 (Homo sapiens) (UniProt O95819); details: Compound concentration 100.0 nM
[21] = target: MAP kinase-activated protein kinase 2 (Homo sapiens) (UniProt P49137); details: Compound concentration 100.0 nM
[22] = target: Hepatocyte growth factor receptor (Homo sapiens) (UniProt P08581); details: Compound concentration 100.0 nM
[23] = target: Serine/threonine-protein kinase NIM1 (Homo sapiens) (UniProt Q8IY84); details: Compound concentration 100.0 nM
[24] = target: Serine/threonine-protein kinase NLK (Homo sapiens) (UniProt Q9UBE8); details: Compound concentration 100.0 nM
[25] = target: Cyclin-dependent kinase 17 (Homo sapiens) (UniProt Q00537); details: Compound concentration 100.0 nM
[26] = target: Phosphatidylinositol 4,5-bisphosphate 3-kinase catalytic subunit beta isoform (Homo sapiens) (UniProt P42338); details: Compound concentration 100.0 nM
[27] = target: Serine/threonine-protein kinase pim-1 (Homo sapiens) (UniProt P11309); details: Compound concentration 100.0 nM
[28] = target: Serine/threonine-protein kinase N1 (Homo sapiens) (UniProt Q16512); details: Compound concentration 100.0 nM
[29] = target: Serine/threonine-protein kinase D3 (Homo sapiens) (UniProt O94806); details: Compound concentration 100.0 nM
[30] = target: Serine/threonine-protein kinase PRP4 homolog (Homo sapiens) (UniProt Q13523); details: Compound concentration 100.0 nM
[31] = target: Serine/threonine-protein kinase Sgk2 (Homo sapiens) (UniProt Q9HBY8); details: Compound concentration 100.0 nM
[32] = target: STE20-like serine/threonine-protein kinase (Homo sapiens) (UniProt Q9H2G2); details: Compound concentration 100.0 nM
[33] = target: Testis-specific serine/threonine-protein kinase 3 (Homo sapiens) (UniProt Q96PN8); details: Compound concentration 100.0 nM
[34] = target: Wee1-like protein kinase (Homo sapiens) (UniProt P30291); details: Compound concentration 100.0 nM
[35] = target: Histamine H2 receptor (Homo sapiens) (UniProt P25021); details: Compound concentration 10.0 uM
[36] = target: T1, Alpha-2C adrenergic receptor (Homo sapiens) (UniProt P18825); details: Compound concentration 10.0 uM
T1 sequence (whole entry): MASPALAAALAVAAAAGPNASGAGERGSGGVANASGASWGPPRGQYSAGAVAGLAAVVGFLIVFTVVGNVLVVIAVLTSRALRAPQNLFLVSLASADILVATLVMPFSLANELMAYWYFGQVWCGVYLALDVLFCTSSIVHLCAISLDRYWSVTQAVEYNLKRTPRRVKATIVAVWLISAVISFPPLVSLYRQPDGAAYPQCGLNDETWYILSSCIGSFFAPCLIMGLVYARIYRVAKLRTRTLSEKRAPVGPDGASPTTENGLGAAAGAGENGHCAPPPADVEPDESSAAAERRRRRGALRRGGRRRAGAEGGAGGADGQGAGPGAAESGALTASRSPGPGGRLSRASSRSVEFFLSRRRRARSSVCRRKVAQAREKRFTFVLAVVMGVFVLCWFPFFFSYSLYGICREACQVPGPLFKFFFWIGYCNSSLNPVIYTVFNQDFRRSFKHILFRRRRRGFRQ

[37] = target: GABA-A receptor; anion channel (Rattus norvegicus) (UniProt O09028+P15431+P18506+P18508+P19969+P20236+P23574+P23576+P28471+P28473+P30191+P62813+P63079+P63138+Q91ZM7+Q9ES14); details: Compound concentration 10.0 uM

Tyrosine-protein kinase Fgr (Homo sapiens), sequence (P09769 2-529 limits assumed): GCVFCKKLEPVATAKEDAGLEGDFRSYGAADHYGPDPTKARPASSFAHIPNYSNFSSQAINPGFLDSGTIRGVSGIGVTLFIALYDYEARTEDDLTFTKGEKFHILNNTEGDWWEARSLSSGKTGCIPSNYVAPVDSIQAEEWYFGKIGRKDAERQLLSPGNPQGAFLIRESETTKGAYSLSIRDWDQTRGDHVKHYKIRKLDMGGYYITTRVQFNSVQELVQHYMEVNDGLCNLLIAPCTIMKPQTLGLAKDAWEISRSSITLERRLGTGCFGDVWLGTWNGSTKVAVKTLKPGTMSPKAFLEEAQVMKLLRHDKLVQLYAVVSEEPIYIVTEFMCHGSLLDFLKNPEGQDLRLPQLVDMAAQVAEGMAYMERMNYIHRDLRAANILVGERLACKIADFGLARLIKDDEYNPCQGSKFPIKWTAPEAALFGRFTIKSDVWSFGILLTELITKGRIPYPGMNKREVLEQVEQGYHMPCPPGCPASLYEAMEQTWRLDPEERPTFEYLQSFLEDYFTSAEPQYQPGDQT
Serine/threonine-protein kinase pim-1 (Homo sapiens), sequence (P11309 whole entry, looked up): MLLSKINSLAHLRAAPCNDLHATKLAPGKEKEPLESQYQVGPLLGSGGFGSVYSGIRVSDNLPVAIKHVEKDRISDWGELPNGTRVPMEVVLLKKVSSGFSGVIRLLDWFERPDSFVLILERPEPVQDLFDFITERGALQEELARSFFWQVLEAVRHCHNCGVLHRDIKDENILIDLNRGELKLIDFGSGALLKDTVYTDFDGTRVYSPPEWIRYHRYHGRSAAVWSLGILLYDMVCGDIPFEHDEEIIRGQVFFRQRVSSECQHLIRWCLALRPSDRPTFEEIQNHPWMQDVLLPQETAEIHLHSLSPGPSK
Histamine H2 receptor (Homo sapiens), sequence (P25021 whole entry): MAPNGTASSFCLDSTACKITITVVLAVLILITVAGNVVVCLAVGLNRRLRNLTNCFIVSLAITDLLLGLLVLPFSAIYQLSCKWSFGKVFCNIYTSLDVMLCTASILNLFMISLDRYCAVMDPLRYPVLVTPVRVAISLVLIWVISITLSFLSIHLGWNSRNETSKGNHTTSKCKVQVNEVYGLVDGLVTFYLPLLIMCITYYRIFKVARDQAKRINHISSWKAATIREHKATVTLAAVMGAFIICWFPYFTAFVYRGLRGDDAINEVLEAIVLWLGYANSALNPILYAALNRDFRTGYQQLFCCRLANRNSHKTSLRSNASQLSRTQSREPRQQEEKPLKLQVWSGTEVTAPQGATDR
Phosphatidylinositol 4,5-bisphosphate 3-kinase catalytic subunit beta isoform (Homo sapiens), sequence (P42338 whole entry, looked up, canonical isoform): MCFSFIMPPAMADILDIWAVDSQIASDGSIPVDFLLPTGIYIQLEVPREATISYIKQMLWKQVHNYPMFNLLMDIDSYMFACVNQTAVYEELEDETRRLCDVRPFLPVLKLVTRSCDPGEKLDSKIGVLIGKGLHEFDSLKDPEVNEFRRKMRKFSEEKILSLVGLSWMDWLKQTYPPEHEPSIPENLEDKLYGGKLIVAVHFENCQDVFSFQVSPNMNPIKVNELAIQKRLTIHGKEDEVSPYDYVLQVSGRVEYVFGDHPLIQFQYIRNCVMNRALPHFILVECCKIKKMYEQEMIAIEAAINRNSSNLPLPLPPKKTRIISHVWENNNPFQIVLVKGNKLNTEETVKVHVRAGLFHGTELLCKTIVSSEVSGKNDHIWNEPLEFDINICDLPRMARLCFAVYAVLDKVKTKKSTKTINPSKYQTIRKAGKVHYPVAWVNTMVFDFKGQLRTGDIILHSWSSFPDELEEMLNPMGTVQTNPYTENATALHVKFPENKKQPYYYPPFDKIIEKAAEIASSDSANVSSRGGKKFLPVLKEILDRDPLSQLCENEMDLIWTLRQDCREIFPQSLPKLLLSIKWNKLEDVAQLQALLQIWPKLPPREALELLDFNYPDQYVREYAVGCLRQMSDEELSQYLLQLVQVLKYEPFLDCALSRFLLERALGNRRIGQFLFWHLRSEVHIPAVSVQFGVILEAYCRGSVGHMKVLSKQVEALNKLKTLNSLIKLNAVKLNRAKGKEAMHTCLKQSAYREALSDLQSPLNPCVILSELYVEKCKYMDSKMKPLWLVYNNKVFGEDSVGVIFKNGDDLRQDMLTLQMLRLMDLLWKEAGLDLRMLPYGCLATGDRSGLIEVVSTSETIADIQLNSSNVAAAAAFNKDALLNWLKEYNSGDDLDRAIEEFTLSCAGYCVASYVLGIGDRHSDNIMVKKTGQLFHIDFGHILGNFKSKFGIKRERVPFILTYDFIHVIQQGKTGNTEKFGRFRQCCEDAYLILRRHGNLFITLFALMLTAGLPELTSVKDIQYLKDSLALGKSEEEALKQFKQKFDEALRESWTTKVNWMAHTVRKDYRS
Inhibitor of nuclear factor kappa-B kinase subunit alpha (Homo sapiens), sequence (O15111 whole entry): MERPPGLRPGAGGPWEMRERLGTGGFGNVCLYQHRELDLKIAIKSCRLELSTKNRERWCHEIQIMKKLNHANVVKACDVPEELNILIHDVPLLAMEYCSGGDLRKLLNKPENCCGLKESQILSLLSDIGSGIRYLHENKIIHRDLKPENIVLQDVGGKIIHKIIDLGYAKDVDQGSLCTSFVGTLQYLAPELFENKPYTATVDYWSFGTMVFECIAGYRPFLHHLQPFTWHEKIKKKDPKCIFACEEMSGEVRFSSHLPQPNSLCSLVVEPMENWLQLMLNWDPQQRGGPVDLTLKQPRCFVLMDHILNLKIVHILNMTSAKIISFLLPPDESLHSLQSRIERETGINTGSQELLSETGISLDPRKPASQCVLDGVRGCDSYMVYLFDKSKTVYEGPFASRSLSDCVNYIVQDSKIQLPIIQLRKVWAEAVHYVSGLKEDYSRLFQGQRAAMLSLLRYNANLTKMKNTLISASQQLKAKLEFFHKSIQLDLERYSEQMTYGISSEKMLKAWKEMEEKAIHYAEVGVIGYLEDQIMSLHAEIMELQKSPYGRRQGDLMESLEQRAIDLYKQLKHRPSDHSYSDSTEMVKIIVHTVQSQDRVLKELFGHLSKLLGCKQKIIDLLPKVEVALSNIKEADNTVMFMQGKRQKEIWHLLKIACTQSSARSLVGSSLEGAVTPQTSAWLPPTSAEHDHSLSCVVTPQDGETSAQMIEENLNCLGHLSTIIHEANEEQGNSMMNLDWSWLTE
Receptor tyrosine-protein kinase erbB-2 (Homo sapiens), sequence (P04626 whole entry): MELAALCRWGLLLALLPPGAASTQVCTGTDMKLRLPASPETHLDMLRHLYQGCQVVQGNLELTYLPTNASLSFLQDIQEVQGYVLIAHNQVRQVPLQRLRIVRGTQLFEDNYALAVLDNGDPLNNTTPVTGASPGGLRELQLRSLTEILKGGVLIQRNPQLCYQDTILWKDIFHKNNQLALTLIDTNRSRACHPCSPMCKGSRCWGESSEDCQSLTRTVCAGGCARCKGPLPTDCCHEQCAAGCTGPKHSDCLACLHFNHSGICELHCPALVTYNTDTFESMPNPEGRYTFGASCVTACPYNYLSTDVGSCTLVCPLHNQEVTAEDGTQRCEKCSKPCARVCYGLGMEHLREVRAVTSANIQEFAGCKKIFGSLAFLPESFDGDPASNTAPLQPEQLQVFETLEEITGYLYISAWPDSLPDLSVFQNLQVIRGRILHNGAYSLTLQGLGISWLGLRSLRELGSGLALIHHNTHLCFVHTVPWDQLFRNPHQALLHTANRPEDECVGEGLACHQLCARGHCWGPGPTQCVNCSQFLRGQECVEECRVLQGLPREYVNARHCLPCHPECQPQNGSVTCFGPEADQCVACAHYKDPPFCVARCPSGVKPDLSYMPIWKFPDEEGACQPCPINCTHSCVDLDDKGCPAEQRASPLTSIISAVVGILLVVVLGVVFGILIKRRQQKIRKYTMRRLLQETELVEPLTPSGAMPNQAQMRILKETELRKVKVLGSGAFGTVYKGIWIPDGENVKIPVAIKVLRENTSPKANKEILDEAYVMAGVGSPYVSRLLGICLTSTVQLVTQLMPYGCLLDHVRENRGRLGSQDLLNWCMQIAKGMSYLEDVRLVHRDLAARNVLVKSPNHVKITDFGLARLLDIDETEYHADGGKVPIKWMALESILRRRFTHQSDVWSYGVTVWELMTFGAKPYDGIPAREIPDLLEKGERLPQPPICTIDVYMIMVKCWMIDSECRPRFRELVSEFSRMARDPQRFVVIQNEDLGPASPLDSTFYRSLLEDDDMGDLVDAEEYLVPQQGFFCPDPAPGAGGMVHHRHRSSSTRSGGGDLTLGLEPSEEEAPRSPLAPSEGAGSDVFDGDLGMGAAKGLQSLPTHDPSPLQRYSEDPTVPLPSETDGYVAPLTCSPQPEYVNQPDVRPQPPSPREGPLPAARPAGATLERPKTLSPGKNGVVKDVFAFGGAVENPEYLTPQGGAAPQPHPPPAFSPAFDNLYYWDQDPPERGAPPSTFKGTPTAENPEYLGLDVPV
Cyclin-dependent kinase 17 (Homo sapiens), sequence (Q00537 whole entry, looked up, canonical isoform): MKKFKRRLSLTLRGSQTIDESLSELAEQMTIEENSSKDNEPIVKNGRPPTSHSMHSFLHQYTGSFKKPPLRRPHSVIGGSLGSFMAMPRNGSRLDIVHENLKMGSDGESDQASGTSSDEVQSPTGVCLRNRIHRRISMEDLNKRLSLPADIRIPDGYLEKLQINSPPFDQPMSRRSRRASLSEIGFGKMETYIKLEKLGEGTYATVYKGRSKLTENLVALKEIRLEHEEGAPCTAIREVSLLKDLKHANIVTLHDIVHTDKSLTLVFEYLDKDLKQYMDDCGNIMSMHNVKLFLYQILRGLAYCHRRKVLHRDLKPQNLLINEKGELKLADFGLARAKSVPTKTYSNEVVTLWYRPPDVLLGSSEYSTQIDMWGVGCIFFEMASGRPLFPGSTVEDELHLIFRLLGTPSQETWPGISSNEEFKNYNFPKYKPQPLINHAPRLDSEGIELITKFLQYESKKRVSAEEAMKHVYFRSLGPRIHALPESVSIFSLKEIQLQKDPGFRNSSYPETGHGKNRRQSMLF

CC(C)CC(=O)N1CCc2nc(-c3ccc(Br)cc3)nc(N(C)Cc3ccccc3)c2C1 [THPP-1-NC]
inactive: residual activity [1] 100% | residual activity [2] 100% | residual activity [3] 81% | residual activity [4] 100% | residual activity [5] 63% | residual activity [6] 87% | residual activity [7] 100% | residual activity [8] 100% | residual activity [9] 100% | residual activity [10] 99% | residual activity [11] 82% | residual activity [12] 99% | residual activity [13] 100% | residual activity [14] 100% | residual activity [15] 100% | residual activity [16] 100% | residual activity [17] 100% | residual activity [18] 91% | residual activity [19] 100% | residual activity [20] 84% | residual activity [21] 92% | residual activity [22] 99% | residual activity [23] 100% | residual activity [24] 100% | residual activity [25] 100% | residual activity [26] 100% | residual activity [27] 100% | residual activity [28] 100% | residual activity [29] 100% | residual activity [30] 100% | residual activity [31] 94% | residual activity [32] 100% | residual activity [33] 100% | residual activity [34] 100% | inhibition [35] 3.39% | inhibition [36] 48% | inhibition [37] -3.36%

COCCOc1nc(-c2ccc(Cl)nc2)nc2c1CN(C(=O)c1ncn3ccccc13)CC2 [THPP-1]
inactive: residual activity [1] 100% | residual activity [2] 100% | residual activity [3] 95% | residual activity [4] 100% | residual activity [5] 61% | residual activity [6] 98% | residual activity [7] 100% | residual activity [8] 100% | residual activity [9] 100% | residual activity [10] 100% | residual activity [11] 82% | residual activity [12] 100% | residual activity [13] 100% | residual activity [14] 100% | residual activity [15] 100% | residual activity [16] 100% | residual activity [17] 100% | residual activity [18] 100% | residual activity [19] 100% | residual activity [20] 73% | residual activity [21] 73% | residual activity [22] 100% | residual activity [23] 100% | residual activity [24] 100% | residual activity [25] 100% | residual activity [26] 100% | residual activity [27] 100% | residual activity [28] 100% | residual activity [29] 94% | residual activity [30] 100% | residual activity [31] 88% | residual activity [32] 100% | residual activity [33] 100% | residual activity [34] 100% | inhibition [35] -0.24% | inhibition [36] 1.3% | inhibition [37] 24.9%
